Test results taken from patent US20100168170A1, “Piperidinones Useful in the Treatment of Inflammation” (priority 2007, published 2010).
pIC50: −log10 of the molar value.

Molecular target: PDE4 enzyme (U937 lysate or recombinant hPDE4)
Assay: In vitro inhibition of PDE4 phosphodiesterases ([3H]cAMP SPA enzyme assay, Method A)
Assay type: biochemical, human
Conditions: Biological Example 1, Method A
Procedure: PDE4 U937 cytoplasmic extracts were prepared by a modified procedure of the assay described in MacKenzie, S. J. and Houslay, M. D., “Action of rolipram on specific PDE4 cAMP phosphodiesterase isoforms and on the phosphorylation of cAMP-response-element-binding protein (CREB) and p38 mitogen-activated protein (MAP) kinase in U937 monocytic cells”, Biochem J. (2000), 347(Pt 2):571-8, by lysis of U937 cells (ATCC: Catalogue No. CRL-159) in M-PER Lysis buffer (Pierce) containing 10% protease inhibitor cocktail (Sigma). The cell lysates were then centrifuged at 30,000 rpm for 15 minutes at 4° C. The supernatants were aliquoted and stored at −80° C.
An alternative source of PDE4 enzymes was from recombinant human PDE4 obtained from baculovirus-SF9 cells expression system. cDNA containing PDE4D1 was cloned into a baculovirus vector, insect cells (SF9) were then infected and cells cultured to express the PDE4 protein. The cells were lysed and used directly in assay or partially purified using standard procedures. The process can be used for other PDE4 and PDE enzymes.
Compounds of the invention were evaluated for inhibitory activity against PDE4 enzymes by the following assay Method A or B.
PDE4 assay based on modified procedure of Phosphodiesterase [^3H]cAMP SPA Enzyme Assay (Amersham Biosciences, code TRKQ 7090). In this assay, PDE4 enzymes converts [^3H]cAMP to [^3H]5′-AMP. The assay is quenched by the addition of SPA yttrium silicate beads which preferentially bind linear nucleotides over cyclic nucleotides in the presence of zinc sulphate.
Reactions were performed in duplicate by the addition of 10 μl PDE4 enzyme (U937 lysate or recombinant hPDE4) to 20 μL of assay mix and 20 μL of test compounds in Isoplates (Wallac) for 30 minutes, at 37° C. The final assay mixture contained: 50 mM Tris (pH 7.5), 8.3 mM MgCl2, 1.7 mM EGTA and [^3H]cAMP (0.025 μCi) (Amersham). Assay was terminated by addition 25 μL SPA beads. The plate was sealed, shaken for 1 minute and then allowed to settle 30 minutes and the cpm determined using a Wallac Micobeta.
PDE4 enzyme was added in quantities such that less than 15% of substrate was consumed (linear assay conditions).

Going from `COc1ccc([C@H]2CNC(=O)[C@H](Cc3ccc(F)c(F)c3)C2)cc1OC1CCCC1` [(3S,5S)-5-(3-(cyclopentyloxy)-4-methoxyphenyl)-3-(3,4-difluorobenzyl)piperidin-2-one] to `CCCNc1cccc(C[C@@H]2C[C@@H](c3ccc(OC)c(OC4CCCC4)c3)CNC2=O)c1` [(3S,5S)-5-(3-(cyclopentyloxy)-4-methoxyphenyl)-3-(3-(propylamino)benzyl)-piperidin-2-one], the pIC50 falls from 7.00 to 6.22 (0.78 log units).

Going from `COc1ccc([C@H]2CNC(=O)[C@H](CCCCCc3ccccc3)C2)cc1OC1CCCC1` [(3R,5S)-5-(3-(cyclopentyloxy)-4-methoxyphenyl)-3-(5-phenylpentyl)piperidin-2-one] to `COc1ccc([C@H]2CNC(=O)C(C(C)c3ccccc3)C2)cc1OC1CCCC1` (stereo partly drawn) [(5S)-5-(3-(cyclopentyloxy)-4-methoxyphenyl)-3-(1-phenylethyl)piperidin-2-one], the pIC50 falls from 6.24 to 5.98 (0.26 log units).

`COc1cc(CC2C[C@@H](c3ccc(OC)c(-c4ccccc4)c3)CNC2=O)ccc1OC1CCCC1` (stereo partly drawn) [(5S)-3-(4-(cyclopentyloxy)-3-methoxybenzyl)-5-(6-methoxybiphenyl-3-yl)piperidin-2-one] and `COc1ccc([C@H]2CNC(=O)[C@H](Cc3ccc(Oc4ccccc4)cc3)C2)cc1OC1CCCC1` [(3S,5S)-5-(3-(cyclopentyloxy)-4-methoxyphenyl)-3-(4-phenoxybenzyl)piperidin-2-one] are within 0.2 log units of each other in pIC50: 6.28 for the first, 6.34 for the second.

Going from `COc1cc(CC2C[C@@H](c3ccc(OC)c(OC4CCCC4)c3)CNC2=O)ccc1OC1CCCC1` (stereo partly drawn) [(5S)-3-(4-(cyclopentyloxy)-3-methoxybenzyl)-5-(3-(cyclopentyloxy)-4-methoxyphenyl)piperidin-2-one] to `COc1ccc([C@H]2CNC(=O)[C@@H](Cc3ccc(OCC(N)=O)cc3)C2)cc1OC1CCCC1` [2-(4-(((3R,5S)-5-(3-(cyclopentyloxy)-4-methoxyphenyl)-2-oxopiperidin-3-yl)methyl)phenoxy)acetamide], the pIC50 falls from 6.42 to 5.87 (0.55 log units).

Going from `CCCCCCCOc1cc([C@H]2CNC(=O)C(Cc3ccccc3)C2)ccc1OC` (stereo partly drawn) [(5S)-3-benzyl-5-(3-(heptyloxy)-4-methoxyphenyl)piperidin-2-one] to `COc1ccc([C@H]2CNC(=O)[C@@H](Cc3cccc(OCc4ccccc4)c3)C2)cc1OC1CCCC1` [(3R,5S)-3-(3-(benzyloxy)benzyl)-5-(3-(cyclopentyloxy)-4-methoxyphenyl)piperidin-2-one], the pIC50 rises from 5.89 to 6.72 (0.83 log units). The second is the more potent here.

`CCOc1cc([C@H]2CNC(=O)C(Cc3ccc(F)cc3)(Cc3ccc(F)cc3)C2)ccc1OC` [(S)-5-(3-ethoxy-4-methoxyphenyl)-3,3-bis(4-fluorobenzyl)piperidin-2-one] and `COc1ccc([C@@H]2C[C@H](Cc3cccc(C)c3)C(=O)N(CC(C)C)C2)cc1OC1CCCC1` [(3R,5S)-5-(3-(cyclopentyloxy)-4-methoxyphenyl)-1-isobutyl-3-(3-methylbenzyl)-piperidin-2-one] are within 0.2 log units of each other in pIC50: 5.29 for the first, 5.17 for the second.

For `COc1ccc([C@@H]2C[C@H](Cc3cccc(C)c3)C(=O)N(C(C)=O)C2)cc1OC1CCCC1` [(3R,5S)-1-acetyl-5-(3-(cyclopentyloxy)-4-methoxyphenyl)-3-(3-methylbenzyl)piperidin-2-one], the pIC50 was 5.96.

Molecular target: T1, human platelet PDE3 (Homo sapiens, UniProt Q14432)
T1 construct: tissue AllCells, LLC PB027; host or cells: human platelets, 70,000 g supernatant of sonicated lysate
T1 sequence (Q14432 whole entry): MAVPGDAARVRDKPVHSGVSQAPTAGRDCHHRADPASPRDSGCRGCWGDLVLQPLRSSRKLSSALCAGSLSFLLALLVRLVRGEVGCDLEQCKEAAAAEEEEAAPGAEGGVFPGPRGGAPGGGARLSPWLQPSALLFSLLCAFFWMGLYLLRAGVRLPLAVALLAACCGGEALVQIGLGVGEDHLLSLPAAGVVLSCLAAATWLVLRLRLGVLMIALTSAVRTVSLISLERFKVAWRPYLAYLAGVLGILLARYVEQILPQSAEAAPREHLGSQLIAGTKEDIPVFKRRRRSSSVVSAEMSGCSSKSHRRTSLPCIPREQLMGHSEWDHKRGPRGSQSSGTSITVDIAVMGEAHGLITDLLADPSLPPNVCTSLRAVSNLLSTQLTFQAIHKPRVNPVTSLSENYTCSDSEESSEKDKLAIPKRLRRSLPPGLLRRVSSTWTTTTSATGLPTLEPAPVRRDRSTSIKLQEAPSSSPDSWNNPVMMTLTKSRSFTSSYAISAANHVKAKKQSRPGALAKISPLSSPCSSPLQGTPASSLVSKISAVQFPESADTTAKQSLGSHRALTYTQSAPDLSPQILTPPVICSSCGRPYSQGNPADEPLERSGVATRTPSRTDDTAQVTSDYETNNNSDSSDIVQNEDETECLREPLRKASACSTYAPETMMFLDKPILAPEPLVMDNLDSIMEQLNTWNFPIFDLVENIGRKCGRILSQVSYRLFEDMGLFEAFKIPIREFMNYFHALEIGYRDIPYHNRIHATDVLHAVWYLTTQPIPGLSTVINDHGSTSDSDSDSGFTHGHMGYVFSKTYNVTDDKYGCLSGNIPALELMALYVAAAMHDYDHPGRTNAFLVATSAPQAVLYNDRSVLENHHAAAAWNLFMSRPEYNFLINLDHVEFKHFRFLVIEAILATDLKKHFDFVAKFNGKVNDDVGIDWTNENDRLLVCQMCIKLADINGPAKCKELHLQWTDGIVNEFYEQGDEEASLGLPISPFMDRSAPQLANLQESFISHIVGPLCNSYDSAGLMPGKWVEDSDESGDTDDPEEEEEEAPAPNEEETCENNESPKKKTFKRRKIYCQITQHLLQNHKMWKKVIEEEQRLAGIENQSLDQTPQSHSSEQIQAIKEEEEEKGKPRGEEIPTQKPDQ
Assay: In vitro inhibition of PDE3 phosphodiesterases (platelet extract, [3H]cAMP SPA)
Assay type: biochemical
Conditions: cAMP as substrate
Procedure: Compounds of the invention were evaluated for inhibitory activity against human platelet PDE3 to ascertain PDE3 inhibition. The PDE3 assay was performed using platelet cell extract as described above in Biological Example 1 for the PDE4 assay. Platelets are known contain PDE's 2, 3 and 5. However […] utilize cGMP, so in an assay with cAMP as a substrate they are not detected.
Human platelet cytoplasmic extracts were prepared by modified method of Keller et al. Human platelets (AllCells, LLC; Cat. No. PB027) were sonicated in supplemented lysis buffer. Supplemented lysis buffer consisted of 20 mM Tris, 1 mM EDTA, 1 mM DTT, 0.25 M sucrose, 1 mM benzamidine, 1 μg/mL Leupeptin, 1 μM Pepstatin, and 0.1 mM PMSF, pH 7.5. The platelet lysates were centrifuged at 70,000 g for 30 minutes at 4° C. The supernatants were aliquoted and stored at −80° C.
Reactions were performed in duplicate by the addition of 10 μL PDE3 lysate to 20 μL of assay mix and 20 μL of test compounds in Isoplates (Wallac) for 30 minutes, at 37° C. […] The plate was sealed, shaken for 1 minute and then allowed to settle 30 minutes and the cpm determined using a Wallac Micobeta.
PDE3 enzyme was added in quantities such that less than 15% of substrate was consumed (linear assay conditions).

In the case of `COc1cc2c(cc1OC)-c1c/c(=N\c3c(C)cc(C)cc3C)n(C)c(=O)n1CC2` [trequinsin], the “inhibition of PDE3 (assay specificity control)” value was “potent inhibitor”.
In the case of `COc1ccc(C2CNC(=O)C2)cc1OC1CCCC1` (stereo not drawn) [rolipram], the “inhibition of PDE3 (assay specificity control)” value was “without effect”.
